How the values were obtained:
[1] = target: influenza A/H3N2 NA, D93G single mutation (Influenza A virus (H3N2), UniProt V9SU56, D93G); type: biochemical; details: read-out: mean drug concentration required to inhibit 50% NA activity
[2] = target: influenza A/H3N2 NA, D93G, Y155F, D251V mutations in combination (Influenza A virus (H3N2), UniProt V9SU56, D251V/D93G/Y155F); type: biochemical; details: read-out: mean drug concentration required to inhibit 50% NA activity
[3] = target: influenza A/H3N2 NA, D93G, D251N mutations in combination (Influenza A virus (H3N2), UniProt V9SU56, D251N/D93G); type: biochemical; details: read-out: mean drug concentration required to inhibit 50% NA activity
[4] = tested on: influenza A/H3N2 NA E119D; details: ref [3] of supplement (Nguyen 2012); cited from earlier work
[5] = tested on: influenza A/H3N2 NA E119I; details: ref [3] of supplement (Nguyen 2012); cited from earlier work
[6] = tested on: influenza A/H3N2 NA E119V; details: ref [3] of supplement (Nguyen 2012); cited from earlier work
[7] = tested on: influenza A/H3N2 NA R292K; details: ref [3] of supplement (Nguyen 2012); cited from earlier work
[8] = tested on: influenza A/H3N2 NA N294S; details: ref [3] of supplement (Nguyen 2012); cited from earlier work
[9] = tested on: influenza A/H3N2 NA E119V+I222V; details: ref [3] of supplement (Nguyen 2012); cited from earlier work
influenza A/H3N2 NA E41G = details: ref [2] of supplement (Monto 2006); cited from earlier work
[10] = tested on: influenza A/H3N2 NA Q136K; details: ref [3] of supplement (Nguyen 2012); cited from earlier work
[11] = tested on: influenza A/H3N2 NA D151A; details: ref [4] of supplement (Sheu 2008); cited from earlier work
[12] = tested on: influenza A/H3N2 NA D151E; details: ref [3] of supplement (Nguyen 2012); cited from earlier work
[13] = tested on: influenza A/H3N2 NA D151V; details: ref [4] of supplement (Sheu 2008); cited from earlier work
[14] = tested on: influenza A/H3N2 NA R224K; details: ref [3] of supplement (Nguyen 2012); cited from earlier work
[15] = tested on: influenza A/H3N2 NA Q226H; details: ref [2] of supplement (Monto 2006); cited from earlier work
[16] = tested on: influenza A/H3N2 NA E276D; details: ref [3] of supplement (Nguyen 2012); cited from earlier work
[17] = tested on: influenza A/H3N2 NA R371K; details: ref [3] of supplement (Nguyen 2012); cited from earlier work
[18] = tested on: influenza A/H3N2 NA E119V+I222L; details: ref [3] of supplement (Nguyen 2012); cited from earlier work
[19] = tested on: influenza A/H3N2 NA I222T; details: cited from earlier work

Row | SMILES | Drug susceptibility by NA inhibition assays (WHO class) [4] | Drug susceptibility by NA inhibition assays (WHO class) [5] | Drug susceptibility by NA inhibition assays (WHO class) [6] | Drug susceptibility by NA inhibition assays (WHO class) [7] | Drug susceptibility by NA inhibition assays (WHO class) [8] | Drug susceptibility by NA inhibition assays (WHO class) [9] | Drug susceptibility by NA inhibition assays (WHO class) (influenza A/H3N2 NA E41G) | Drug susceptibility by NA inhibition assays (WHO class) [10] | Drug susceptibility by NA inhibition assays (WHO class) [11] | Drug susceptibility by NA inhibition assays (WHO class) [12] | Drug susceptibility by NA inhibition assays (WHO class) [13] | Drug susceptibility by NA inhibition assays (WHO class) [14] | Drug susceptibility by NA inhibition assays (WHO class) [15] | Drug susceptibility by NA inhibition assays (WHO class) [16] | Drug susceptibility by NA inhibition assays (WHO class) [17] | Drug susceptibility by NA inhibition assays (WHO class) [18] | also measured
1 | CCC(CC)[C@H](NC(C)=O)[C@@H]1[C@H](O)[C@@H](C(=O)O)C[C@H]1N=C(N)N [Peramivir, peramivir] | S (<10-fold increase as susceptible (“S”)) | S (<10-fold increase as susceptible (“S”)) | S (<10-fold increase as susceptible (“S”)) | DS/R | S (<10-fold increase as susceptible (“S”)) | S (<10-fold increase as susceptible (“S”)) |  |  |  |  |  |  |  |  |  |  | IC50 [1]: 200 ± 100 pM; IC50 [2]: 200 ± 100 pM; IC50 [3]: 400 pM; IC50 fold-change compared to wildtype [4]: 2 fold; IC50 fold-change compared to wildtype [5]: 3 fold; IC50 fold-change compared to wildtype [6]: 1-3 fold; IC50 fold-change compared to wildtype [7]: 14-719 fold; IC50 fold-change compared to wildtype [8]: 1 fold; IC50 fold-change compared to wildtype [9]: 7 fold
2 | CC(=O)N[C@H]1[C@H]([C@H](O)[C@H](O)CO)OC(C(=O)O)=C[C@@H]1N=C(N)N [Zanamivir, zanamivir] | DS (10–100-fold increase as decreased susceptibility (“DS”)) | DS (10–100-fold increase as decreased susceptibility (“DS”)) | S (<10-fold increase as susceptible (“S”)) | S/DS/R | S (<10-fold increase as susceptible (“S”)) | S (<10-fold increase as susceptible (“S”)) | S (<10-fold increase as susceptible (“S”)) | DS (10–100-fold increase as decreased susceptibility (“DS”)) | DS (10–100-fold increase as decreased susceptibility (“DS”)) | S (<10-fold increase as susceptible (“S”)) | DS (10–100-fold increase as decreased susceptibility (“DS”)) | DS (10–100-fold increase as decreased susceptibility (“DS”)) | S (<10-fold increase as susceptible (“S”)) | R (>100-fold increase as resistant (“R”)) | DS (10–100-fold increase as decreased susceptibility (“DS”)) | S (<10-fold increase as susceptible (“S”)) | 
3 | CCOC(=O)C1=C[C@@H](OC(CC)CC)[C@H](NC(C)=O)[C@@H](N)C1 [Oseltamivir, oseltamivir] | S (<10-fold increase as susceptible (“S”)) | R (>100-fold increase as resistant (“R”)) | DS/R | R (>100-fold increase as resistant (“R”)) | R (>100-fold increase as resistant (“R”)) | R (>100-fold increase as resistant (“R”)) | DS (10–100-fold increase as decreased susceptibility (“DS”)) | S (<10-fold increase as susceptible (“S”)) | S (<10-fold increase as susceptible (“S”)) | DS (10–100-fold increase as decreased susceptibility (“DS”)) | S (<10-fold increase as susceptible (“S”)) | R (>100-fold increase as resistant (“R”)) | DS (10–100-fold increase as decreased susceptibility (“DS”)) | DS (10–100-fold increase as decreased susceptibility (“DS”)) | DS (10–100-fold increase as decreased susceptibility (“DS”)) | R (>100-fold increase as resistant (“R”)) | increase in IC50 compared to that of the wild-type ([19]; I222T in influenza A/H3N2): 16 fold; Drug susceptibility by NA inhibition assays (WHO class) ([19]; I222T, ref [5] of supplement (Pizzorno 2014)): DS (10–100-fold increase as decreased susceptibility (“DS”))

Reference: PMC4311985, “Molecular Surveillance of Antiviral Drug Resistance of Influenza A/H3N2 Virus in Singapore, 2009-2013” (PLoS ONE, 2015)
